Data from the NIST ThermoML archive (doi:10.1016/j.jct.2015.12.027).
Numbers after ± are expanded uncertainties.

Assays:
[1] = xn = mol fraction of the nth substance listed; conditions: 81.5 kPa, Liquid, Vibrating tube method
[2] = refractive index (Na D-line) (dimensionless); xn = mol fraction of the nth substance listed; conditions: 81.5 kPa, Liquid, Standard Abbe refractometry

Clc1ccccc1 [chlorobenzene] + ClCCCl
Conditions	mass density, 293.15 K [kg/m3]	mass density, 303.15 K [kg/m3]	mass density, 313.15 K [kg/m3]	mass density, 323.15 K [kg/m3]	mass density, 333.15 K [kg/m3]	refractive index, 293.15 K	refractive index, 303.15 K	refractive index, 313.15 K	refractive index, 323.15 K	refractive index, 333.15 K
[1], x2 = 0	1106.49 ± 10	1095.71 ± 10	1084.86 ± 10	1073.96 ± 10	1063.01 ± 10	–	–	–	–	–
[1], x2 = 0.1022	1117.76 ± 10	1106.63 ± 10	1095.44 ± 10	1084.22 ± 10	1073.02 ± 10	–	–	–	–	–
[1], x2 = 0.2027	1129.4 ± 10	1117.99 ± 10	1106.5 ± 10	1094.94 ± 10	1083.38 ± 10	–	–	–	–	–
[1], x2 = 0.3126	1142.87 ± 10	1131.14 ± 10	1119.28 ± 10	1107.34 ± 10	1095.38 ± 10	–	–	–	–	–
[1], x2 = 0.4014	1154.41 ± 10	1142.36 ± 10	1130.2 ± 10	1117.94 ± 10	1105.63 ± 10	–	–	–	–	–
[1], x2 = 0.4994	1167.89 ± 10	1155.52 ± 10	1142.99 ± 10	1130.34 ± 10	1117.61 ± 10	–	–	–	–	–
[1], x2 = 0.6002	1182.73 ± 10	1169.98 ± 10	1157.05 ± 10	1143.96 ± 10	1130.77 ± 10	–	–	–	–	–
[1], x2 = 0.7	1198.46 ± 10	1185.33 ± 10	1171.98 ± 10	1158.43 ± 10	1144.78 ± 10	–	–	–	–	–
[1], x2 = 0.7999	1215.33 ± 10	1201.74 ± 10	1187.98 ± 10	1173.96 ± 10	1159.89 ± 10	–	–	–	–	–
[1], x2 = 0.9007	1233.56 ± 10	1219.46 ± 10	1205.18 ± 10	1190.75 ± 10	1176.31 ± 10	–	–	–	–	–
[2], x2 = 0	–	–	–	–	–	1.52455 ± 0.01	1.51902 ± 0.01	1.51346 ± 0.01	1.50781 ± 0.01	1.50223 ± 0.01
[2], x2 = 0.1022	–	–	–	–	–	1.51915 ± 0.01	1.51376 ± 0.01	1.50848 ± 0.01	1.50327 ± 0.01	1.49826 ± 0.01
[2], x2 = 0.2027	–	–	–	–	–	1.51388 ± 0.01	1.50871 ± 0.01	1.50361 ± 0.01	1.49855 ± 0.01	1.49366 ± 0.01
[2], x2 = 0.3126	–	–	–	–	–	1.50734 ± 0.01	1.50235 ± 0.01	1.49739 ± 0.01	1.4924 ± 0.01	1.4875 ± 0.01
[2], x2 = 0.4014	–	–	–	–	–	1.50115 ± 0.01	1.49625 ± 0.01	1.49135 ± 0.01	1.48642 ± 0.01	1.48154 ± 0.01
[2], x2 = 0.4994	–	–	–	–	–	1.49334 ± 0.01	1.48847 ± 0.01	1.48362 ± 0.01	1.47874 ± 0.01	1.47393 ± 0.01
[2], x2 = 0.6002	–	–	–	–	–	1.48436 ± 0.01	1.47949 ± 0.01	1.47465 ± 0.01	1.4698 ± 0.01	1.46504 ± 0.01
[2], x2 = 0.7	–	–	–	–	–	1.47478 ± 0.01	1.46991 ± 0.01	1.46504 ± 0.01	1.46017 ± 0.01	1.45535 ± 0.01
[2], x2 = 0.7999	–	–	–	–	–	1.46481 ± 0.01	1.45993 ± 0.01	1.455 ± 0.01	1.45001 ± 0.01	1.44502 ± 0.01
[2], x2 = 0.9007	–	–	–	–	–	1.45465 ± 0.01	1.44969 ± 0.01	1.44464 ± 0.01	1.43948 ± 0.01	1.43427 ± 0.01

Brc1ccccc1 [bromobenzene] + ClCCCl
Conditions	mass density, 293.15 K [kg/m3]	mass density, 303.15 K [kg/m3]	mass density, 313.15 K [kg/m3]	mass density, 323.15 K [kg/m3]	mass density, 333.15 K [kg/m3]	refractive index, 293.15 K	refractive index, 303.15 K	refractive index, 313.15 K	refractive index, 323.15 K	refractive index, 333.15 K
[1], x2 = 0	1495.52 ± 10	1481.97 ± 10	1468.41 ± 10	1454.85 ± 10	1441.22 ± 10	–	–	–	–	–
[1], x2 = 0.1031	1475.66 ± 10	1461.99 ± 10	1448.3 ± 10	1434.54 ± 10	1420.74 ± 10	–	–	–	–	–
[1], x2 = 0.2005	1455.9 ± 10	1442.07 ± 10	1428.17 ± 10	1414.26 ± 10	1400.29 ± 10	–	–	–	–	–
[1], x2 = 0.3001	1434.62 ± 10	1420.64 ± 10	1406.6 ± 10	1392.5 ± 10	1378.34 ± 10	–	–	–	–	–
[1], x2 = 0.3997	1412.26 ± 10	1398.16 ± 10	1383.98 ± 10	1369.73 ± 10	1355.39 ± 10	–	–	–	–	–
[1], x2 = 0.4996	1388.86 ± 10	1374.68 ± 10	1360.39 ± 10	1345.98 ± 10	1331.47 ± 10	–	–	–	–	–
[1], x2 = 0.6001	1364.37 ± 10	1350.09 ± 10	1335.69 ± 10	1321.15 ± 10	1306.48 ± 10	–	–	–	–	–
[1], x2 = 0.6993	1339.1 ± 10	1324.73 ± 10	1310.2 ± 10	1295.56 ± 10	1280.77 ± 10	–	–	–	–	–
[1], x2 = 0.7993	1312.25 ± 10	1297.77 ± 10	1283.16 ± 10	1268.43 ± 10	1253.56 ± 10	–	–	–	–	–
[1], x2 = 0.8986	1283.81 ± 10	1269.28 ± 10	1254.59 ± 10	1239.77 ± 10	1224.87 ± 10	–	–	–	–	–
[2], x2 = 0	–	–	–	–	–	1.55981 ± 0.01	1.55442 ± 0.01	1.5489 ± 0.01	1.54319 ± 0.01	1.53742 ± 0.01
[2], x2 = 0.1031	–	–	–	–	–	1.55145 ± 0.01	1.5466 ± 0.01	1.54165 ± 0.01	1.53652 ± 0.01	1.53135 ± 0.01
[2], x2 = 0.2005	–	–	–	–	–	1.54415 ± 0.01	1.53939 ± 0.01	1.53455 ± 0.01	1.52957 ± 0.01	1.52458 ± 0.01
[2], x2 = 0.3001	–	–	–	–	–	1.53597 ± 0.01	1.53114 ± 0.01	1.52627 ± 0.01	1.5213 ± 0.01	1.51632 ± 0.01
[2], x2 = 0.3997	–	–	–	–	–	1.5262 ± 0.01	1.52135 ± 0.01	1.51645 ± 0.01	1.51147 ± 0.01	1.5065 ± 0.01
[2], x2 = 0.4996	–	–	–	–	–	1.51453 ± 0.01	1.50972 ± 0.01	1.50487 ± 0.01	1.49994 ± 0.01	1.49501 ± 0.01
[2], x2 = 0.6001	–	–	–	–	–	1.50149 ± 0.01	1.49679 ± 0.01	1.49202 ± 0.01	1.48719 ± 0.01	1.48235 ± 0.01
[2], x2 = 0.6993	–	–	–	–	–	1.48764 ± 0.01	1.48301 ± 0.01	1.47833 ± 0.01	1.47357 ± 0.01	1.46881 ± 0.01
[2], x2 = 0.7993	–	–	–	–	–	1.47349 ± 0.01	1.46883 ± 0.01	1.46414 ± 0.01	1.45938 ± 0.01	1.45461 ± 0.01
[2], x2 = 0.8986	–	–	–	–	–	1.45961 ± 0.01	1.45476 ± 0.01	1.44989 ± 0.01	1.44499 ± 0.01	1.44008 ± 0.01
